Results published in patent US7138486B2, “Insulinotropic hormone derivatives and uses thereof” (The General Hospital Corporation, priority 1986, dated 2006).

Assay: Biological half-life

## CC[C@H](C)[C@H](NC(=O)[C@H](Cc1ccccc1)NC(=O)[C@H](CCC(=O)O)NC(=O)[C@H](CCCCN)NC(=O)[C@H](C)NC(=O)[C@H](C)NC(=O)[C@H](CCC(N)=O)NC(=O)CNC(=O)[C@H](CCC(=O)O)NC(=O)[C@H](CC(C)C)NC(=O)[C@H](Cc1ccc(O)cc1)NC(=O)[C@H](CO)NC(=O)[C@H](CO)NC(=O)[C@@H](NC(=O)[C@H](CC(=O)O)NC(=O)[C@H](CO)NC(=O)[C@@H](NC(=O)[C@H](Cc1ccccc1)NC(=O)[C@@H](NC(=O)CNC(=O)[C@H](CCC(=O)O)NC(=O)[C@H](C)NC(=O)[C@H](Cc1cnc[nH]1)NC(=O)[C@H](CCCNC(=N)N)NC(=O)[C@H](CCC(=O)O)NC(=O)[C@H](Cc1ccccc1)NC(=O)[C@H](CCC(=O)O)NC(=O)[C@H](CC(=O)O)NC(=O)[C@@H](N)Cc1cnc[nH]1)[C@@H](C)O)[C@@H](C)O)C(C)C)C(=O)N[C@@H](C)C(=O)N[C@@H](Cc1c[nH]c2ccccc12)C(=O)N[C@@H](CC(C)C)C(=O)N[C@H](C(=O)N[C@@H](CCCCN)C(=O)NCC(=O)N[C@@H](CCCNC(=N)N)C(=O)NCC(=O)O)C(C)C [GLP-1(1-37)]
  half-life: 15 to 20 min
